Laboratory results reported in paper PMC4128814, “A High Throughput Screen Identifies Potent and Selective Inhibitors to Human Epithelial 15-Lipoxygenase-2” (PLoS ONE, 2014).

What was measured:
Assay type in all cases: biochemical
human recombinant COX-2 = biological target: T1, human recombinant COX-2 (Homo sapiens, UniProt P35354); test: Cyclooxygenase assay (oxygen electrode), COX-2; details: estimated from one inhibitor point at 20 µM; 100 µM AA
T1 construct: purchased Cayman Chemical
T1 sequence (P35354 18-604): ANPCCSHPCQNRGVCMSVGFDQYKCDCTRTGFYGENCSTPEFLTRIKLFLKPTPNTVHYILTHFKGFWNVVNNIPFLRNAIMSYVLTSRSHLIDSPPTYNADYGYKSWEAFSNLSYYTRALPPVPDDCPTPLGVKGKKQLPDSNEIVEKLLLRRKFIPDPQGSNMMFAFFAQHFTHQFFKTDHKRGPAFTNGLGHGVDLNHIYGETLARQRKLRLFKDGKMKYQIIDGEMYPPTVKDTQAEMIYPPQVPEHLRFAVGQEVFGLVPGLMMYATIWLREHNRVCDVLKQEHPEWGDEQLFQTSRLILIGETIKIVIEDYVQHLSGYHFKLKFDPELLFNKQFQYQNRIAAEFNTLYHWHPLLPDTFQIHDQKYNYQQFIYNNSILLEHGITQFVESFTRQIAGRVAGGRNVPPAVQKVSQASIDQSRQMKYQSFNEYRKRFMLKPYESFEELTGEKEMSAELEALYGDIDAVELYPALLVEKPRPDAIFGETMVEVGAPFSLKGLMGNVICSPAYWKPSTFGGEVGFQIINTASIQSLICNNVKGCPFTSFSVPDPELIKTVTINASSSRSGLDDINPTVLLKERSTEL
Method: (§1) Cyclooxygenase activity assay was performed as previously described. Approximately 3 µg of either ovine COX-1 (COX-1) or human recombinant COX-2 (COX-2) (Cayman Chemical) were added to buffer containing 0.1 M Tris-HCl buffer (pH 8.0), 5 mM EDTA, 2 mM phenol and 1 µM hematin at 37°C. The selected inhibitors were added to the reaction cell, followed by an incubation of 5 minutes with either of the COX enzymes. The reaction was then initiated by adding 100 µM AA in the reaction cell, as indicated in enzymatic protocol (Cayman Chemicals). Data were collected using a Hansatech DW1 oxygen electrode and the consumption of oxygen was recorded. Indomethacin and the solvent (DMSO), were used as positive and negative controls, respectively, and the percent inhibition of the enzyme was calculated by comparing the rates of the samples to the controls.

15-LOX-1 = biological target: T2, 15-LOX-1 (Homo sapiens, UniProt P16050); test: Lipoxygenase UV-Vis assay, 15-LOX-1; details: estimated from one inhibitor point at 20 µM; 10 µM AA
T2 construct: His6 (N); made in house
T2 sequence (P16050 1-662): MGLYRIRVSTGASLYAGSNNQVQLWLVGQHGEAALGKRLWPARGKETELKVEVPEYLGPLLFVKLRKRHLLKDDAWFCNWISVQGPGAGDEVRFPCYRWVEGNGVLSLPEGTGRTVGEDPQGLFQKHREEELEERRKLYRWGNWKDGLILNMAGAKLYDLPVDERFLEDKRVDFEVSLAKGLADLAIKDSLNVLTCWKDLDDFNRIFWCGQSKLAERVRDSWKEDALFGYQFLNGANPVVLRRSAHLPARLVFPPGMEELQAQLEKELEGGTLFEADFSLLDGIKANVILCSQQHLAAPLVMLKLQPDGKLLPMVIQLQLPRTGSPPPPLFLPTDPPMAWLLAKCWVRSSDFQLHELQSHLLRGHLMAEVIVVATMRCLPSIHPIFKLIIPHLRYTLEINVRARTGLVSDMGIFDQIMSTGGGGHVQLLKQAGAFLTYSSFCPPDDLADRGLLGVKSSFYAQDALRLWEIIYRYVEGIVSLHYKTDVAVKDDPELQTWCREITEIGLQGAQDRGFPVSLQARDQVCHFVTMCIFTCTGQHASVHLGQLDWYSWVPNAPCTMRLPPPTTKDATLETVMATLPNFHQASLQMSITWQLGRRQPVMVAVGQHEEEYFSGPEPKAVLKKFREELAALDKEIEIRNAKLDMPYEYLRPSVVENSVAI
From the text: Different lipoxygenases, such as 15-LOX-1, 15-LOX-2, and 12-LOX were expressed as N-terminal His6-tagged proteins and were purified via immobilized metal affinity chromatography (IMAC) using an Ni-NTA resin for 15-LOX-1 [12], and 15-LOX-2 [17], and a Ni-IDA resin for 12-LOX [18]. […] Human leukocyte 5-lipoxygenase (5-LOX) was expressed as a non-tagged protein and used as a crude ammonium sulfate protein fraction, as published previously, [20].
The inhibitor compounds were screened initially using one concentration point at 25 µM on a Perkin-Elmer Lambda 40 UV/Vis spectrophotometer. […] The reactions were initiated by adding 200 nM 15-LOX-2, 30 nM 12-LOX, 40 nM 15-LOX-1, or approximately 100–300 nM (5–10 µL) of 5-LOX crude extract to a cuvette with 2 mL reaction buffer, constantly stirred using a magnetic stir bar at room temperature (22°C). Reaction buffers used for various LOX isozymes were as follows: 25 mM HEPES (pH 7.3), 0.3 mM CaCl2, 0.1 mM EDTA, 0.2 mM ATP, 0.01% Triton X-100, 10 µM AA for the crude, ammonium sulfate precipitated 5-LOX; and 25 mM HEPES (pH 7.5), 0.01% Triton X-100, 10 µM AA for 15-LOX-2, 15-LOX-1, and 12-LOX. […] The data were then plotted against inhibitor concentration, followed by a hyperbolic saturation curve fit (assuming total enzyme concentration [E]≪IC50). […] All inhibitors were stored at −20°C in DMSO. […]

ovine COX-1 = biological target: T3, ovine COX-1 (Ovis aries, UniProt P05979); test: Cyclooxygenase assay (oxygen electrode), COX-1; details: estimated from one inhibitor point at 20 µM; 100 µM AA
T3 construct: purchased Cayman Chemical
T3 sequence (P05979 25-600): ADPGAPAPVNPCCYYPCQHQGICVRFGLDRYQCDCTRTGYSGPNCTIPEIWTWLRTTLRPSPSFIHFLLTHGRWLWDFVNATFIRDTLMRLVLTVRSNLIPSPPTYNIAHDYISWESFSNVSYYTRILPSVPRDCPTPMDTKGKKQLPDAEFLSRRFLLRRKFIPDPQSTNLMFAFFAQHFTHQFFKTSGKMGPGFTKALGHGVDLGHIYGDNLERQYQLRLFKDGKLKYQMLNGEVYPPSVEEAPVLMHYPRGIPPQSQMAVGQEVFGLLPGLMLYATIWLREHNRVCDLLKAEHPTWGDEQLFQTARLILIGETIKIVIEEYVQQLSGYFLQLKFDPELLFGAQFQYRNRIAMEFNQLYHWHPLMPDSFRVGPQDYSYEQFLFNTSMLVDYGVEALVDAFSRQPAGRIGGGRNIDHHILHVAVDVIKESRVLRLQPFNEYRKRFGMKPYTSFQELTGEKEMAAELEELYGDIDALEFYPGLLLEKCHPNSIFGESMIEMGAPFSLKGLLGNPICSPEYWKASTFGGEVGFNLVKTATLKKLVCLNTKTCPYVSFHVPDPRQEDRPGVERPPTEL
Method: as §1

IC50 (human recombinant COX-2) [µM] | IC50 (15-LOX-1) [µM] | IC50 (ovine COX-1) [µM] | Compound
> 100 | > 50 | > 100 | Cc1ccc(CSc2ncn(-c3ccccc3)n2)cc1 [MLS000536924]
> 100 | > 100 | > 50 | Clc1ccc(-c2nnc(C3CCCCC3)o2)cc1 [MLS000545091]
